Data on six compounds can be found in article PMC12916490 (Molecular Psychiatry, 2025).

The structures appear in SMILES notation.

In general, Ki refers to a measure of affinity in units of concentration, obtained from inhibition or displacement.

The assay concerns the target T1, hα1A (Homo sapiens, UniProt P35348).
T1 construct: expressed in transfected cells; host or cells: Chinese hamster ovary cells (membrane preparation)
T1 sequence (P35348 1-466): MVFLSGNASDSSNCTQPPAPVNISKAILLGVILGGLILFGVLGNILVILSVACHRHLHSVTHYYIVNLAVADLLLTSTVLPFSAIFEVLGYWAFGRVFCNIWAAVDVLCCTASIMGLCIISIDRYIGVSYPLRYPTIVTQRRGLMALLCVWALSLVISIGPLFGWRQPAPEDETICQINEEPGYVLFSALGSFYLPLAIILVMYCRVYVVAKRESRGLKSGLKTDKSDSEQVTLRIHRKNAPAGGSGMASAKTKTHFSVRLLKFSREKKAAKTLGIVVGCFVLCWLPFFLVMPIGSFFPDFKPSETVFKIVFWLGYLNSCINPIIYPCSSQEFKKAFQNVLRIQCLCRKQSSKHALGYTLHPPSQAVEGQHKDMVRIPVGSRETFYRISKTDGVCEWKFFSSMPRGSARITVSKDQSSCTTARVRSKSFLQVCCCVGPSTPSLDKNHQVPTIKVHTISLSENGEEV
Nature of the assay: Radioligand binding, hα1A receptor ([3H]prazosin). Here is the method: Binding affinities at human monoamine receptors and transporters were assessed as previously reported. A detailed description of the methodology is provided in the Supplementary information.
Data analysis was performed with Prism software (version 10.1.2, GraphPad Software, Boston, MA, USA). The IC50 values from the radioligand binding assays were determined by nonlinear regression, using three independent concentration-response curves fitted to a one-site model. The Cheng-Prusoff equation was used to calculate Kᵢ values for the competing ligands. EC50 values were determined by applying nonlinear regression to concentration-response curves. Bias factors (β) were calculated based on the relative intrinsic activity approach. More detailed information can be found in the Supplementary information. Mean values for total number of HTR, change in body temperature from pre to post session (Δ°C), and total distance traveled (cm) for each drug dose were compared (p < 0.05) via Welch’s ANOVA with Dunnett’s T3 post test, comparing all doses to respective vehicle controls (0 mg/kg). Welch’s ANOVA with Dunnett’s T3 post test was also used to compare drug concentrations, but the data were compared to DOM in this case. Dose–response relationships for HTR and locomotor activities were plotted using bell-shaped curve fits, while temperature change data were plotted using four-parameter non-linear regression curve fits. The ascending phase of the HTR curve for each drug was used to determine ED50 potency values from four parameter non-linear regression fits. For combined DOM and DOAM administration, the plasma, brain tissue, and brain dialysate drug concentrations were compared using paired t-tests (p < 0.05). Ratios were compared using Holm-Sidak’s post hoc test following a repeated-measures one-way ANOVA (F (1.709, 6.835) = 70.80; p < 0.0001).
3.1 Assessment of receptor and transporter binding affinities
Membrane preparations were prepared from cells transfected with the respective target. The membrane preparations were then incubated with selective radioligands at concentrations equal to the corresponding Kd and displacement of the ligand by the drugs was measured. The difference between total binding and nonspecific binding (determined in the presence of selective competitors) was defined as specific binding of the radioligand to the target receptor. The following transfected cell lines were used for the binding assays: HEK 293 cells (h5-HT1A, h5-HT2A, h5-HT2B, h5-HT2C, and hD2 receptors, hDAT, hNET, and hSERT), Chinese hamster ovary cells (hα 1A receptor), and Chinese hamster lung cells (hα 2A receptor).
3.1.1 Membrane preparations for receptor and transporter binding
For producing membrane preparations, transfected cells were harvested with trypsin/EDTA, washed with ice-cold phosphate buffered saline, and then pelleted by centrifugation (210 × g for 5 min at 4 °C). The pellets were frozen and stored at -80 °C until use. Frozen pellets were resuspended in 20 m L (receptor binding) or 400 m L (transporter binding) buffer (20 mM HEPES -NaOH, 10 mM EDTA, pH 7.4), and homogenized at 1,100 × g for 20 s (receptor binding) or 560 × g for 15 s (transporter binding); the homogenates were then centrifuged at 48,000 × g for 30 min at 4 °C. For receptor binding assays, the supernatants were discarded and the pellets were resuspended in 20 mL buffer (20 mM HEPES-NaOH, 0.1 mM EDTA, pH 7.4) and homogenized at 1 ,100 × g for 20 s. Centrifugation and discarding of the supernatant were repeated once, and the final pellet was then resuspended in buffer and homogenized.
3.1.2 Serotonin 5-HT1A and 5-HT2A receptor binding
Competitive binding at the h5-HT1A and h5-HT2A receptor was determined using 0.90 nM [ 3H]8-hydroxy-2-(di-n-propylamine)tetralin ([ 3H]8-OH-DPAT; h5-HT1A receptor agonist) and 0.40 nM [3H]ketanserin (h5-HT2 receptor antagonist) as radioligands. The density and affinity of [ 3H]8-OH-DPAT […]
`CCCCc1cc(OC)c(CC(C)N)cc1OC` (stereo not drawn) [DOBU, 4-butyl-2,5-dimethoxyamphetamine] registered a Ki of 2.1 µM.
`COc1ccc(OC)c(CC(C)N)c1.Cl` (stereo not drawn) [2,5-DMA, 2,5-Dimethoxyamphetamine hydrochloride] yielded a Ki of 5.36 µM.
Under `CCCCCc1cc(OC)c(CC(C)N)cc1OC` (stereo not drawn) [DOAM, 4-amyl-2,5-dimethoxyamphetamine] stands 2.52 µM; under `CCc1cc(OC)c(CC(C)N)cc1OC` (stereo not drawn) [DOET, 4-ethyl-2,5-dimethoxyamphetamine], 4.01 µM; under `CCCc1cc(OC)c(CC(C)N)cc1OC.Cl` (stereo not drawn) [DOPR, 4-propyl-2,5-dimethoxyamphetamine hydrochloride], 6.99 µM.
Under `COc1cc(CC(C)N)c(OC)cc1C` (stereo not drawn) [DOM, 4-methyl-2,5-dimethoxyamphetamine] stands 7.39 µM.
